Measurements: patent publication US10231967B2, “Compounds and their use as BACE inhibitors” (ASTRAZENECA AB, priority 2010, dated 2019)

Test system: sAPPβ release in SH-SY5Y cells
Experiment: sAPPβ release assay
Format: cell-based
Settings: Homo sapiens, SH-SY5Y, 17 h, compounds incubated 17 h, MSD detection
Experimental: Thaw cells and seed at a conc. of around 10000 cells/well in DMEM/F-12 with Glutamax, 10% FCS and 1% non-essential amino acids to a 384-well tissue culture treated plate, 100 μL cell susp/well. […] The cell medium was removed, followed by addition of 30 μL compound diluted in DMEM/F-12 with Glutamax, 10% FCS, 1% non-essential amino acids and 1% PeSt to a final conc. of 1% DMSO. The compounds were incubated with the cells for 17 h (overnight) at 37° C., 5% CO2. Meso Scale Discovery (MSD) plates were used for the detection of sAPPβ release. MSD sAPPβ plates were blocked in 1% BSA in Tris wash buffer (40 μL/well) for 1 h on shake at r.t. and washed 1 time in Tris wash buffer (40 μL/well). 20 μL of medium was transferred to the pre-blocked and washed MSD sAPPβ microplates, and the cell plates were further used in an ATP assay to measure cytotoxicity. The MSD plates were incubated with shaking at r.t. for 2 h and the media discarded. 10 μL detection antibody was added (1 nM) per well followed by incubation with shaking at r.t. for 2 h and then discarded. 40 μL Read Buffer was added per well and the plates were read in a SECTOR Imager.

SMILES	IC50 [nM]
CO[C@H]1CC[C@]2(CC1)Cc1ccc(-c3cc(C#N)cc(C(F)(F)F)c3)cc1[C@@]21N=C(C)C(N)=N1 [Example 85]	0.8
COc1cc(-c2ccc3c(c2)[C@@]2(N=C(C)C(N)=N2)[C@]2(CC[C@H](OC)CC2)C3)cc(C#N)c1F [Example 87, 5-[(1r,1′R,4R)-4″-Amino-4-methoxy-5″-methyl-3′H-dispiro[cyclohexane-1,2′-indene-1′,2″-imidazol]-6′-yl]-2-fluoro-3-methoxybenzonitrile]	0.93
CO[C@H]1CC[C@]2(CC1)Cc1ccc(-c3cc(F)cc(F)c3)cc1[C@@]21N=C(C)C(N)=N1 [Example 88, (1r,1′R,4R)-6′-(3,5-difluorophenyl)-4-methoxy-5″-methyl-3′H-dispiro[cyclohexane-1,2′-indene-1′,2″-imidazol]-4″-amine]	4.8
COc1cccc(-c2ccc3c(c2)[C@@]2(N=C(C)C(N)=N2)[C@]2(CC[C@H](OC)CC2)C3)c1F [Example 89, (1r,1′R,4R)-6′-(2-Fluoro-3-methoxyphenyl)-4-methoxy-5″-methyl-3′H-dispiro[cyclohexane-1,2′-indene-1′,2″-imidazol]-4′″-amine]	1.7
CO[C@H]1CC[C@]2(CC1)Cc1ccc(-c3cc(Br)cc(C#N)c3)cc1C21N=C(C)C(N)=N1 (stereo partly shown) [Example 93, 3-[(1r,4r)-4″-Amino-4-methoxy-5″-methyl-3′H-dispiro[cyclohexane-1,2′-indene-1′,2″-imidazol]-6′-yl]-5-bromobenzonitrile]	0.56
CCc1cc(C#N)cc(-c2ccc3c(c2)C2(N=C(C)C(N)=N2)[C@]2(CC[C@H](OC)CC2)C3)c1 (stereo partly shown) [Example 95, 3-[(1r,4r)-4″-Amino-4-methoxy-5″-methyl-3′H-dispiro[cyclohexane-1,2′-indene-1′,2″-imidazol]-6′-yl]-5-ethylbenzonitrile]	3.6
CO[C@H]1CC[C@]2(CC1)Cc1ccc(-c3ccc(F)cc3F)cc1[C@@]21N=C(C)C(N)=N1 [Example 103]	14
CO[C@H]1CC[C@]2(CC1)Cc1ccc(-c3cccc(Cl)c3Cl)cc1[C@@]21N=C(C)C(N)=N1 [Example 104, (1r,1′R,4R)-6′-(2,3-dichlorophenyl)-4-methoxy-5″-methyl-3′H-dispiro[cyclohexane-1,2′-indene-1′,2″-imidazol]-4″-amine]	34
CC1=NC2(N=C1N)c1cc(-c3cc(F)cc(F)c3)ccc1C[C@]21CC[C@@H](OC(F)F)CC1 (stereo partly shown) [Example 109]	28
CO[C@H]1CC[C@]2(CC1)Cc1ccc(C#CC3CCC3)cc1C21N=C(C)C(N)=N1 (stereo partly shown) [Example 112, (1r,4r)-6′-(Cyclobutylethynyl)-4-methoxy-5″-methyl-3′H-dispiro[cyclohexane-1,2′-indene-1′,2″-imidazol]-4″-amine]	2
CO[C@H]1CC[C@]2(CC1)Cc1ccc(C#CC(C)C)cc1C21N=C(C)C(N)=N1 (stereo partly shown) [Example 113, (1r,4r)-4-Methoxy-5″-methyl-6′-(3-methylbut-1-yn-1-yl)-3′H-dispiro[cyclohexane-1,2′-indene-1′,2″-imidazol]-4″-amine]	1.6
[2H]C([2H])([2H])C#Cc1cncc(-c2ccc3c(c2)[C@@]2(N=C(C)C(N)=N2)[C@]2(CC[C@H](OC)CC2)C3)c1 [Example 114, (1r,1′R,4R)-4-Methoxy-5″-methyl-6′-{5-[(^2H3)prop-1-yn-1-yl]pyridin-3-yl}-3′H-dispiro[cyclohexane-1,2′-indene-1′,2″-imidazol]-4″-amine]	0.14

Same assay, conditions: Homo sapiens, compounds incubated 17 h, MSD detection

SMILES	IC50 [nM]
CO[C@H]1CC[C@]2(CC1)Cc1ccc(-c3cc(C#N)cc(C(F)F)c3)cc1[C@@]21N=C(C)C(N)=N1 [Example 86, 3-[(1r,1′R,4R)-4″-Amino-4-methoxy-5-methyl-3′H-dispiro[cyclohexane-1,2′-indene-1′,2″-imidazol]-6′-yl]-5-(difluoromethyl)benzonitrile]	1.1
CO[C@H]1CC[C@]2(CC1)Cc1ccc(-c3ccccc3)cc1[C@@]21N=C(C)C(N)=N1 [Example 90, (1r,1′R,4R)-4-Methoxy-5″-methyl-6′-phenyl-3′H-dispiro[cyclohexane-1,2′-indene-1′,2″-imidazol]-4″-amine]	14
COc1cc(C#N)cc(-c2ccc3c(c2)C2(N=C(C)C(N)=N2)[C@]2(CC[C@H](OC)CC2)C3)c1 (stereo partly shown) [Example 91, 3-[(1r,4r)-4″-Amino-4-methoxy-5″-methyl-3′H-dispiro[cyclohexane-1,2′-indene-1′,2″-imidazol]-6′-yl]-5-methoxybenzonitrile]	0.62
COCc1cc(C#N)cc(-c2ccc3c(c2)C2(N=C(C)C(N)=N2)[C@]2(CC[C@H](OC)CC2)C3)c1 (stereo partly shown) [Example 96, 3-[(1r,4r)-4″-Amino-4-methoxy-5″-methyl-3′H-dispiro[cyclohexane-1,2′-indene-1′,2″-imidazol]-6′-yl]-5-(methoxymethyl)benzonitrile]	3.5
COc1ccc(F)c(-c2ccc3c(c2)[C@@]2(N=C(C)C(N)=N2)[C@]2(CC[C@H](OC)CC2)C3)c1 [Example 98, (1r,1′R,4R)-6′-(2-Fluoro-5-methoxyphenyl)-4-methoxy-5″-methyl-3′H-dispiro[cyclohexane-1,2′-indene-1′,2″-imidazol]-4′″-amine]	0.82
CO[C@H]1CC[C@]2(CC1)Cc1ccc(-c3cc(F)ccc3F)cc1[C@@]21N=C(C)C(N)=N1 [Example 99, (1r,1′R,4R)-6′-(2,5-Difluorophenyl)-4-methoxy-5′-methyl-3′H-dispiro[cyclohexane-1,2′-indene-1′,2″-imidazol]-4″-amine]	5.7
CO[C@H]1CC[C@]2(CC1)Cc1ccc(-c3cc(Cl)c(F)c(C#N)c3)cc1[C@@]21N=C(C)C(N)=N1 [Example 100, 5-[(1r,1′R,4R)-4″-amino-4-methoxy-5″-methyl-3′H-dispiro[cyclohexane-1,2′-indene-1′,2″-imidazol]-6′-yl]-3-chloro-2-fluorobenzonitrile]	0.59
CO[C@H]1CC[C@]2(CC1)Cc1ccc(-c3cccc(F)c3F)cc1[C@@]21N=C(C)C(N)=N1 [Example 101]	6.3
CO[C@H]1CC[C@]2(CC1)Cc1ccc(-c3cc(C#N)ccc3F)cc1[C@@]21N=C(C)C(N)=N1 [Example 102, 3-[(1r,1′R,4R)-4″-Amino-4-methoxy-5″-methyl-3′H-dispiro[cyclohexane-1,2′-indene-1′,2″-imidazol]-6′-yl]-4-fluorobenzonitrile]	2.5
CC1=NC2(N=C1N)c1cc(-c3cncc(C(F)(F)F)c3)ccc1C[C@]21CC[C@@H](OC(F)F)CC1 (stereo partly shown) [Example 107]	7.9
CC1=NC2(N=C1N)c1cc(-c3cc(Cl)cc(C#N)c3)ccc1C[C@]21CC[C@@H](OC(F)F)CC1 (stereo partly shown) [Example 108, 3-[(1r,4r)-4″-Amino-4-(difluoromethoxy)-5″-methyl-3′H-dispiro[cyclohexane-1,2′-indene-1′,2″-imidazol]-6′-yl]-5-chlorobenzonitrile]	1.8
COc1cc(-c2ccc3c(c2)C2(N=C(C)C(N)=N2)[C@]2(CC[C@H](OC(F)F)CC2)C3)cc(C#N)c1F (stereo partly shown) [Example 110, 5-[(1r,4r)-4″-Amino-4-(difluoromethoxy)-5″-methyl-3′H-dispiro[cyclohexane-1,2′-indene-1′,2″-imidazol]-6′-yl]-2-fluoro-3-methoxybenzonitrile]	4
CC#Cc1cncc(-c2ccc3c(c2)C2(N=C(C)C(N)=N2)[C@]2(CC[C@](C)(OC)CC2)C3)c1 (stereo partly shown) [Example 111, (1r,4r)-4-Methoxy-4,5″-dimethyl-6′-[5-(prop-1-yn-1-yl)pyridin-3-yl]-3′H-dispiro[cyclohexane-1,2′-indene-1′,2″-imidazol]-4″-amine]	31
